Source: patent US9107415B2, “2-(substituted-phenyl)-cyclopentane-1,3-dione compounds, and derivatives thereof” (Syngenta Limited, priority 2011, dated 2015)

Key:
Format in all cases: in vivo
Spring Wheat “Teal” = assay: Biological Example 4B post-emergence phytotoxicity on cereal crops; settings: 14 DAA, technical compound in IF50 + Adigor, mean of two
Method: (§1) Seeds of a variety of test species are sown in standard soil in pots. After cultivation for 14 days under controlled conditions in a glasshouse (at 22/16°C., day/night; 16 hours light; 65% humidity), the plants are sprayed with an aqueous spray solution derived from the formulation of the technical active ingredient dissolved in acetone plus IF50 containing
(§2) 10.56 wt % Emulsogen™EL (castor oil ethoxylate, CAS Registry number 61791-12-6)
(§3) 42.22 wt % N-Methyl pyrrolidone
(§4) 42.22 wt % dipropylene glycol monoethyl ether
(§5) at a 1:20 ratio of (technical active ingredient:IF50). The adjuvant Adigor™(an adjuvant containing inter alia methylated rapeseed oil, e.g. available from Syngenta) is added to form a 0.5% v/v solution. The test plants are then grown on under controlled conditions in the glasshouse (at 22/16°C., day/night; 16 hours light; 65% humidity) and are watered twice daily. After 14 days the test is evaluated (100%=total damage to plant; 0%=no damage to plant).
(§6) Post-emergence herbicidal activity (phytotoxicity) data, on certain grassy monocotyledonous weeds and cereal crops in a glasshouse, are measured 14 days after application of the herbicide (14 DAA), for (a) a […] the same time as the herbicide, and (b) for a post-emergence application rate of 30 g/ha of the test herbicide with 50 g/ha of cloquintocet-mexyl safener applied at substantially the same time as the herbicide. Herbicidal activity (phytotoxicity) is evaluated visually, and an assessed percentage phytotoxicity score is given for each herbicidal application on each plant species (with 100%=total damage to plant; 0%=no damage to plant). Two repetitions are made for each experiment, and the mean herbicidal activity (phytotoxicity) data is reported.

[1] = system: Spring Barley “Harrington”; assay: as above; settings: 14 DAA, technical compound in IF50 + Adigor, mean of two
Method: as §1, §2, §3, §4, §5
Post-emergence herbicidal activity (phytotoxicity) data, on certain grassy monocotyledonous weeds and cereal crops in a glasshouse, are measured 14 days after application of the herbicide (14 DAA), for (a) a post-emergence application rate of 60 g/ha of the test herbicide with or without 50 g/ha of cloquintocet-mexyl safener applied at substantially the same time as the herbicide, and (b) for a post-emergence application rate of 30 g/ha of the test herbicide with 50 g/ha of cloquintocet-mexyl safener applied at substantially the same time as the herbicide. Herbicidal activity (phytotoxicity) is evaluated visually, and an assessed percentage phytotoxicity score is given for each herbicidal application on each plant species (with 100%=total damage to plant; 0%=no damage to plant). Two repetitions are made for each experiment, and the mean herbicidal activity (phytotoxicity) data is reported.

[2] = system: Alopecurus myosuroides (ALOMY); assay: Biological Example 1 glasshouse screen, pre-emergence herbicidal activity; settings: 312 h, application rate 250 g/ha, evaluated after 13 days, read-out: ALOMY percentage phytotoxicity
In short: (§7)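 Glasshouse, 24/16°C, 14 h light, 65% RH, watered twice daily. Spray: technical a.i., acetone/water 50:50, 0.5% Tween 20. Timing: day 1 pre-em, day 8 post-em. Score: visual % damage, day 13.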

[3] = system: Echinochloa crus-galli (ECHCG); assay: as above; settings: 312 h, application rate 250 g/ha, evaluated after 13 days, read-out: ECHCG percentage phytotoxicity
In short: as §7

Avena fatua (AVEFA) [4] = assay: Biological Example 1 glasshouse screen, post-emergence herbicidal activity; settings: 312 h, application rate 250 g/ha, evaluated after 13 days, read-out: AVEFA percentage phytotoxicity
In short: (§8)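 Pots in a glasshouse (24/16°C day/night, 14 h light, 65% humidity) were sprayed one day after sowing (pre-emergence) or after 8 days (post-emergence), using acetone/water (50:50) with 0.5% Tween 20. Phytotoxicity was scored visually as % damage (0-100) 13 days after application.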

Lolium perenne (LOLPE) = assay: as above; settings: 312 h, application rate 250 g/ha, evaluated after 13 days, read-out: LOLPE percentage phytotoxicity
In short: as §8

Winter Barley “Suzuka” = assay: Biological Example 4B post-emergence phytotoxicity on cereal crops; settings: 14 DAA, technical compound in IF50 + Adigor, mean of two
Method: as §1, §2, §3, §4, §5
(§9) […] Herbicidal activity (phytotoxicity) is evaluated visually, and an assessed percentage phytotoxicity score is given for each herbicidal application on each plant species (with 100%=total damage to plant; 0%=no damage to plant). Two repetitions are made for each experiment, and the mean herbicidal activity (phytotoxicity) data is reported.

Winter Wheat “Hereward” = assay: as above; settings: 14 DAA, technical compound in IF50 + Adigor, mean of two
Method: as §1, §2, §3, §4, §5, §9

[5] = system: Lolium multiflorum (LOLMU); assay: Biological Example 4B (not-previously-formulated compounds) post-emergence herbicidal activity on grassy weeds; settings: 14 DAA, technical compound in IF50 + Adigor, mean of two
Method: as §1, §2, §3, §4, §5, §6
(§10) Test plants: Avena fatua (AVEFA), Lolium multiflorum (LOLMU), Setaria viridis (SETVI), Poa annua (POAAN), Alopecurus myosuroides (ALOMY). All five of these are grassy monocotyledonous weeds.

Avena fatua (AVEFA) [6] = assay: as above; settings: 14 DAA, technical compound in IF50 + Adigor, mean of two
Method: as §1, §2, §3, §4, §5, §9, §10

[7] = system: Alopecurus myosuroides (ALOMY); assay: as above; settings: 14 DAA, technical compound in IF50 + Adigor, mean of two
Method: as §1, §2, §3, §4, §5, §9, §10

Poa annua (POAAN) = assay: as above; settings: 14 DAA, technical compound in IF50 + Adigor, mean of two
Method: as §1, §2, §3, §4, §5, §9, §10

Setaria viridis (SETVI) = assay: as above; settings: 14 DAA, technical compound in IF50 + Adigor, mean of two
Method: as §1, §2, §3, §4, §5, §9, §10

[8] = 15 g/ha, cloquintocet-mexyl 50 g/ha
[9] = 30 g/ha, cloquintocet-mexyl 50 g/ha
[10] = 60 g/ha, cloquintocet-mexyl 0 g/ha
[11] = 60 g/ha, cloquintocet-mexyl 50 g/ha

Row | SMILES | Spring Wheat “Teal” phytotoxicity (%) (Spring Wheat “Teal”; [9]) | Spring Wheat “Teal” phytotoxicity (%) (Spring Wheat “Teal”; [10]) | Spring Wheat “Teal” phytotoxicity (%) (Spring Wheat “Teal”; [11]) | Spring Barley “Harrington” phytotoxicity (%) [1, 9] | Spring Barley “Harrington” phytotoxicity (%) [1, 10] | Spring Barley “Harrington” phytotoxicity (%) [1, 11] | pest or weed control at 250 g/ha [2] | pest or weed control at 250 g/ha [3] | pest or weed control at 250 g/ha (Avena fatua (AVEFA) [4]) | pest or weed control at 250 g/ha (Lolium perenne (LOLPE)) | Winter Barley “Suzuka” phytotoxicity (%) (Winter Barley “Suzuka”; [9]) | Winter Barley “Suzuka” phytotoxicity (%) (Winter Barley “Suzuka”; [10]) | Winter Barley “Suzuka” phytotoxicity (%) (Winter Barley “Suzuka”; [11]) | Winter Wheat “Hereward” phytotoxicity (%) (Winter Wheat “Hereward”; [9]) | Winter Wheat “Hereward” phytotoxicity (%) (Winter Wheat “Hereward”; [10]) | Winter Wheat “Hereward” phytotoxicity (%) (Winter Wheat “Hereward”; [11]) | LOLMU % phytotoxicity [5, 9] | LOLMU % phytotoxicity [5, 10] | LOLMU % phytotoxicity [5, 11] | AVEFA % phytotoxicity (Avena fatua (AVEFA) [6]; [9]) | also measured
1 | CC#Cc1cc(C)c(C2C(=O)CC(Cc3ccn(C)n3)C2=O)c(C)c1 (stereo not drawn) [Compound A-19] | 73% | 90% | 83% | 38% | 98% | 94% | 100% | 100% | 100% | 100% | 55% | 97% | 95% | 65% | 89% | 75% | 100% | 100% | 100% | 90% | Spring Wheat “Teal” phytotoxicity (%) (Spring Wheat “Teal”; [8]): 23%; Winter Barley “Suzuka” phytotoxicity (%) (Winter Barley “Suzuka”; [8]): 3%; Winter Wheat “Hereward” phytotoxicity (%) (Winter Wheat “Hereward”; [8]): 58%; LOLMU % phytotoxicity [5, 8]: 98%; AVEFA % phytotoxicity (Avena fatua (AVEFA) [6]; [8]): 88%; AVEFA % phytotoxicity (Avena fatua (AVEFA) [6]; [10]): 99%; AVEFA % phytotoxicity (Avena fatua (AVEFA) [6]; [11]): 99%; ALOMY % phytotoxicity [7, 8]: 99%; ALOMY % phytotoxicity [7, 9]: 100%; ALOMY % phytotoxicity [7, 10]: 100%; ALOMY % phytotoxicity [7, 11]: 100%; POAAN % phytotoxicity (Poa annua (POAAN); [8]): 75%; POAAN % phytotoxicity (Poa annua (POAAN); [9]): 80%; POAAN % phytotoxicity (Poa annua (POAAN); [10]): 92%; POAAN % phytotoxicity (Poa annua (POAAN); [11]): 92%; SETVI % phytotoxicity (Setaria viridis (SETVI); [8]): 99%; SETVI % phytotoxicity (Setaria viridis (SETVI); [9]): 100%; SETVI % phytotoxicity (Setaria viridis (SETVI); [10]): 100%; SETVI % phytotoxicity (Setaria viridis (SETVI); [11]): 100%
2 | CC#Cc1cc(C)c(C2=C(O)CC(Cc3ccc(F)cn3)C2=O)c(C)c1 (stereo not drawn) [Compound A-11] | 8% | 38% | 15% | 8% | 58% | 13% | 90% | 100% | 90% | 100% | 8% | 68% | 33% | 3% | 55% | 8% | 68% | 95% | 88% | 50% | AVEFA % phytotoxicity (Avena fatua (AVEFA) [6]; [10]): 93%; AVEFA % phytotoxicity (Avena fatua (AVEFA) [6]; [11]): 88%; ALOMY % phytotoxicity [7, 9]: 73%; ALOMY % phytotoxicity [7, 10]: 85%; ALOMY % phytotoxicity [7, 11]: 85%; POAAN % phytotoxicity (Poa annua (POAAN); [9]): 70%; POAAN % phytotoxicity (Poa annua (POAAN); [10]): 75%; POAAN % phytotoxicity (Poa annua (POAAN); [11]): 75%; SETVI % phytotoxicity (Setaria viridis (SETVI); [9]): 89%; SETVI % phytotoxicity (Setaria viridis (SETVI); [10]): 98%; SETVI % phytotoxicity (Setaria viridis (SETVI); [11]): 97%
3 | CC#Cc1cc(C)c(C2=C(O)CC(Cc3ccc(C)cn3)C2=O)c(C)c1 (stereo not drawn) [Compound A-8] | 0% | 73% | 25% | 18% | 85% | 75% | 100% | 100% | 100% | 100% | 9% | 73% | 60% | 13% | 63% | 45% | 68% | 92% | 94% | 45% | AVEFA % phytotoxicity (Avena fatua (AVEFA) [6]; [10]): 97%; AVEFA % phytotoxicity (Avena fatua (AVEFA) [6]; [11]): 95%; ALOMY % phytotoxicity [7, 9]: 63%; ALOMY % phytotoxicity [7, 10]: 94%; ALOMY % phytotoxicity [7, 11]: 94%; POAAN % phytotoxicity (Poa annua (POAAN); [9]): 65%; POAAN % phytotoxicity (Poa annua (POAAN); [10]): 80%; POAAN % phytotoxicity (Poa annua (POAAN); [11]): 75%; SETVI % phytotoxicity (Setaria viridis (SETVI); [9]): 55%; SETVI % phytotoxicity (Setaria viridis (SETVI); [10]): 75%; SETVI % phytotoxicity (Setaria viridis (SETVI); [11]): 75%
4 | CC#Cc1cc(C)c(C2=C(O)CC(Cc3ccc(C#N)cn3)C2=O)c(C)c1 (stereo not drawn) [Compound A-14] | 13% | 83% | 65% | 70% | 95% | 95% | 90% | 90% | 90% | 100% | 45% | 97% | 93% | 30% | 80% | 78% | 88% | 100% | 97% | 38% | AVEFA % phytotoxicity (Avena fatua (AVEFA) [6]; [10]): 83%; AVEFA % phytotoxicity (Avena fatua (AVEFA) [6]; [11]): 80%; ALOMY % phytotoxicity [7, 9]: 78%; ALOMY % phytotoxicity [7, 10]: 97%; ALOMY % phytotoxicity [7, 11]: 97%; POAAN % phytotoxicity (Poa annua (POAAN); [9]): 83%; POAAN % phytotoxicity (Poa annua (POAAN); [10]): 85%; POAAN % phytotoxicity (Poa annua (POAAN); [11]): 85%; SETVI % phytotoxicity (Setaria viridis (SETVI); [9]): 99%; SETVI % phytotoxicity (Setaria viridis (SETVI); [10]): 100%; SETVI % phytotoxicity (Setaria viridis (SETVI); [11]): 100%
